Source: patent US12208088B2 (Genentech, Inc., priority 2018, dated 2025)

molecular target: HPK1 (Homo sapiens (Human), UniProt Q92918); assay: HPK1 Lantha binding assay ("Lanth"); settings: binding assays; Morrison Ki fit
Outline: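 Ki values are from Morrison-equation fitting of 665/615 nm TR-FRET signals, taking enzyme level, tracer level and tracer Kd into account. The assay mix held HPK1 (2 nM), Eu-anti-GST antibody (2 nM) and Tracer222 (15 nM). Incubations were two 1 h steps at 23 °C, on 5-fold serial compound dilutions.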

Chain of HPK1 (Q92918 1-346 limits assumed): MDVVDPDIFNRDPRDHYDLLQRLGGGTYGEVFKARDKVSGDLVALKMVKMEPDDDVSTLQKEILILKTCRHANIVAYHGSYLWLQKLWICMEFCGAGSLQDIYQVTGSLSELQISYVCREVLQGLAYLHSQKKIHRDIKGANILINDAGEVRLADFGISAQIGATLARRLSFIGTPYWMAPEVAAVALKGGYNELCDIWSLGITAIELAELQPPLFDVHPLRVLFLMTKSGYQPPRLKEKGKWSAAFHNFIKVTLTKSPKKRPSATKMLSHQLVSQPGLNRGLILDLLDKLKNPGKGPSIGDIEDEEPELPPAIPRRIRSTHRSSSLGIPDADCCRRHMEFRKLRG

SMILES | Ki
O=C1OCc2ccc(-c3cnc4c(c3)C3(CC3)CN4)cc21 [Compound 277, 6-(1′,2′-dihydrospiro[cyclopropane-1,3′-pyrrolo[2,3-b]pyridin]-5′-yl)isobenzofuran-1(3H)-one] | 342 nM
CCC1(O)C(=O)Nc2ccc(-c3cnc4c(c3)C3(CC3)CN4)cc21 (stereo not drawn) [Compound 278, 5-(1′,2′-dihydrospiro[cyclopropane-1,3′-pyrrolo[2,3-b]pyridin]-5′-yl)-3-ethyl-3-hydroxyindolin-2-one] | 281 nM
CC1(C#N)C(=O)Nc2ccc(-c3cnc4c(c3)C3(CC3)CN4)cc21 (stereo not drawn) [Compound 279, 5-(1′,2′-dihydrospiro[cyclopropane-1,3′-pyrrolo[2,3-b]pyridin]-5′-yl)-3-methyl-2-oxoindoline-3-carbonitrile] | 41.8 nM
O=C1Nc2ccc(-c3cnc4c(c3Cl)C3(CC3)CN4)cc2C1(O)C1CC1 (stereo not drawn) [Compound 280, 5-(4′-chloro-1′,2′-dihydrospiro[cyclopropane-1,3′-pyrrolo[2,3-b]pyridin]-5′-yl)-3-cyclopropyl-3-hydroxyindolin-2-one] | 179 nM
CC1(C#N)C(=O)Nc2ccc(-c3cnc4c(c3Cl)C3(CC3)CN4)cc21 (stereo not drawn) [Compound 282, 5-(4′-chloro-1′,2′-dihydrospiro[cyclopropane-1,3′-pyrrolo[2,3-b]pyridin]-5′-yl)-3-methyl-2-oxoindoline-3-carbonitrile] | 217 nM
Nc1cc(-c2cnc3c(c2)C2(CC2)CN3)nc(N2CCCOC2=O)n1 [Compound 289, 3-(4-amino-6-(1′,2′-dihydrospiro[cyclopropane-1,3′-pyrrolo[2,3-b]pyridin]-5′-yl)pyrimidin-2-yl)-1,3-oxazinan-2-one] | 215 nM
Nc1ccc(-c2cnc3c(c2)C2(CC2)CN3)nc1C(=O)N1CC[C@H](O)C1 [Compound 290a, (S)-(3-amino-6-(1′,2′-dihydrospiro[cyclopropane-1,3′-pyrrolo[2,3-b]pyridin]-5′-yl)pyridin-2-yl)(3-hydroxypyrrolidin-1-yl)methanone] | 559 nM
Nc1ccc(-c2cnc3c(c2)C2(CC2)CN3)nc1C(=O)N1CC[C@@H](O)C1 [Compound 290b, (R)-(3-amino-6-(1′,2′-dihydrospiro[cyclopropane-1,3′-pyrrolo[2,3-b]pyridin]-5′-yl)pyridin-2-yl)(3-hydroxypyrrolidin-1-yl)methanone] | 895 nM
CN(C)C(=O)CNc1ccc(-c2cnc3c(c2)C2(CC2)CN3)cn1 [Compound 291, 2-((5-(1′,2′-dihydrospiro[cyclopropane-1,3′-pyrrolo[2,3-b]pyridin]-5′-yl)pyridin-2-yl)amino)-N,N-dimethylacetamide] | 236 nM
Nc1cc(-c2cnc3c(c2)C2(CC2)CN3)nc(N2CCOC2=O)c1 [Compound 292, 3-(4-amino-6-(1′,2′-dihydrospiro[cyclopropane-1,3′-pyrrolo[2,3-b]pyridin]-5′-yl)pyridin-2-yl)oxazolidin-2-one] | 127 nM
Nc1cc(-c2cnc3c(c2)C2(CC2)CN3)nc(N2CCCOC2=O)c1 [Compound 293, 3-(4-amino-6-(1′,2′-dihydrospiro[cyclopropane-1,3′-pyrrolo[2,3-b]pyridin]-5′-yl)pyridin-2-yl)-1,3-oxazinan-2-one] | 47.4 nM
CN(C)C(=O)c1cc(N)cc(-c2cnc3c(c2)C2(CC2)CN3)n1 [Compound 294, 4-amino-6-(1′,2′-dihydrospiro[cyclopropane-1,3′-pyrrolo[2,3-b]pyridin]-5′-yl)-N,N-dimethylpicolinamide] | 309 nM
Nc1cc(-c2cnc3c(c2)C2(CC2)CN3)nc(-c2ncccn2)c1 [Compound 295, 2-(1′,2′-dihydrospiro[cyclopropane-1,3′-pyrrolo[2,3-b]pyridin]-5′-yl)-6-(pyrimidin-2-yl)pyridin-4-amine] | 387 nM
O=C1CCCCN1c1cccc2c(-c3cnc4c(c3)C3(CC3)CN4)c[nH]c12 [Compound 299, 1-(3-(1′,2′-Dihydrospiro[cyclopropane-1,3′-pyrrolo[2,3-b]pyridin]-5′-yl)-1H-indol-7-yl)piperidin-2-one] | 88.9 nM
O=C1CCCCN1c1cccc2c(-c3cnc4c(c3Cl)C3(CCC(O)C3)CN4)c[nH]c12 (stereo not drawn) [Compound 300, 1-(3-(4′-Chloro-3-hydroxy-1′,2′-dihydrospiro[cyclopentane-1,3′-pyrrolo[2,3-b]pyridin]-5′-yl)-1H-indol-7-yl)piperidin-2-one] | 50.6 nM

Further lines, results first:

Ki | SMILES
38 nM | CN(Cc1cnn(C2CCNC2)c1)C(=O)c1cccc(-c2cnc3c(c2Cl)C2(CC=CC2)CN3)c1F (stereo not drawn) [Compound 260, 3-(4′-Chloro-1′,2′-dihydrospiro[cyclopentane-1,3′-pyrrolo[2,3-b]pyridin]-3-en-5′-yl)-2-fluoro-N-methyl-N-((1-(pyrrolidin-3-yl)-1H-pyrazol-4-yl)methyl)benzamide]
12 nM | CN(Cc1cnn(CCO)c1)C(=O)c1cccc(-c2cnc3c(c2Cl)C2(CC=CC2)CN3)c1F [Compound 262, 3-(4′-Chloro-1′,2′-dihydrospiro[cyclopentane-1,3′-pyrrolo[2,3-b]pyridin]-3-en-5′-yl)-2-fluoro-N-((1-(2-hydroxyethyl)-1H-pyrazol-4-yl)methyl)-N-methylbenzamide]
283 nM | CN(C)C(=O)C1(c2cccc(-c3cnc4c(c3Cl)C3(CC=CC3)CN4)c2)CC1 [Compound 263, 1-(3-(4′-Chloro-1′,2′-dihydrospiro[cyclopentane-1,3′-pyrrolo[2,3-b]pyridin]-3-en-5′-yl)phenyl)-N,N-dimethylcyclopropane-1-carboxamide]
108 nM | NC(=O)C1(c2cccc(-c3cnc4c(c3Cl)C3(CC=CC3)CN4)c2F)CC1 [Compound 265, 1-(3-(4′-Chloro-1′,2′-dihydrospiro[cyclopentane-1,3′-pyrrolo[2,3-b]pyridin]-3-en-5′-yl)-2-fluorophenyl)cyclopropane-1-carboxamide]
484 nM | O=C(N1CCOCC1)C1(c2cccc(-c3cnc4c(c3Cl)C3(CC=CC3)CN4)c2)CC1 [Compound 268, (1-(3-(4′-Chloro-1′,2′-dihydrospiro[cyclopentane-1,3′-pyrrolo[2,3-b]pyridin]-3-en-5′-yl)phenyl)cyclopropyl)(morpholino)methanone]
191 nM | N#CCNC(=O)c1ccnc(-c2cccc(-c3cnc4c(c3Cl)C3(CC=CC3)CN4)c2F)c1 [Compound 269, 2-(3-(4′-Chloro-1′,2′-dihydrospiro[cyclopentane-1,3′-pyrrolo[2,3-b]pyridin]-3-en-5′-yl)-2-fluorophenyl)-N-(cyanomethyl)isonicotinamide]
331 nM | CN(CC#N)C(=O)C1(c2cccc(-c3cnc4c(c3Cl)C3(CC=CC3)CN4)c2)CC1 [Compound 270, 1-(3-(4′-Chloro-1′,2′-dihydrospiro[cyclopentane-1,3′-pyrrolo[2,3-b]pyridin]-3-en-5′-yl)phenyl)-N-(cyanomethyl)-N-methylcyclopropane-1-carboxamide]
44.8 nM | CN(C)C(=O)c1c(N)ccc(-c2cnc3c(c2Cl)[C@]2(CC[C@@H](S(C)(=O)=O)CC2)CN3)c1F [Compound 273a, 6-Amino-3-((1r,4r)-4′-chloro-4-(methylsulfonyl)-1′,2′-dihydrospiro[cyclohexane-1,3′-pyrrolo[2,3-b]pyridin]-5′-yl)-2-fluoro-N,N-dimethylbenzamide]
252 nM | Clc1c(-c2ccc3[nH]nnc3c2)cnc2c1C1(CC=CC1)CN2 [Compound 276, 5′-(1H-Benzo[d][1,2,3]triazol-5-yl)-4′-chloro-1′,2′-dihydrospiro[cyclopentane-1,3′-pyrrolo[2,3-b]pyridin]-3-ene]
144 nM | CC1(C(N)=O)C(=O)Nc2ccc(-c3cnc4c(c3Cl)C3(CC3)CN4)cc21 (stereo not drawn) [Compound 281, 5-(4′-chloro-1′,2′-dihydrospiro[cyclopropane-1,3′-pyrrolo[2,3-b]pyridin]-5′-yl)-3-methyl-2-oxoindoline-3-carboxamide]
629 nM | Clc1c(-c2cccc3[nH]ccc23)cnc2c1C1(CC=CC1)CN2 [Compound 284, 4-Chloro-5′-(1H-indol-4-yl)-1′,2′-dihydrospiro[cyclopentane-1,3′-pyrrolo[2,3-b]pyridin]-3-ene]
375 nM | Clc1c(-c2ccc3[nH]ncc3c2)cnc2c1C1(CC=CC1)CN2 [Compound 285, 4-Chloro-5′-(1H-indazol-5-yl)-1′,2′-dihydrospiro[cyclopentane-1,3′-pyrrolo[2,3-b]pyridin]-3-ene]
120 nM | Clc1c(-c2cccc3[nH]ncc23)cnc2c1C1(CC=CC1)CN2 [Compound 286, 4-Chloro-5′-(1H-indazol-4-yl)-1′,2′-dihydrospiro[cyclopentane-1,3′-pyrrolo[2,3-b]pyridin]-3-ene]
638 nM | Clc1c(-c2ccc3[nH]ccc3c2)cnc2c1C1(CC=CC1)CN2 [Compound 287, 4-Chloro-5′-(1H-indol-5-yl)-1′,2′-dihydrospiro[cyclopentane-1,3′-pyrrolo[2,3-b]pyridin]-3-ene]
16 nM | CN(C)C(=O)c1nc(-c2cnc3c(c2Cl)[C@]2(CC[C@](C)(C#N)C2)CN3)ccc1N [Compound 288, 3-Amino-6-((1R,3 S)-4′-chloro-3-cyano-3-methyl-1′,2′-dihydrospiro[cyclopentane-1,3′-pyrrolo[2,3-b]pyridin]-5′-yl)-N,N-dimethylpicolinamide]
11.4 nM | Cn1cccc(-c2cc(-c3cnc4c(c3Cl)C3(CC3)CN4)cc(N)n2)c1=O [Compound 296, 6-amino-4-(4′-chloro-1′,2′-dihydrospiro[cyclopropane-1,3′-pyrrolo[2,3-b]pyridin]-5′-yl)-1′-methyl-[2,3′-bipyridin]-2′(1′H)-one]
57.6 nM | CN(C)C(=O)c1cccc2c(-c3cnc4c(c3)C3(CC3)CN4)c[nH]c12 [Compound 297, 3-(1′,2′-Dihydrospiro[cyclopropane-1,3′-pyrrolo[2,3-b]pyridin]-5′-yl)-N,N-dimethyl-1H-indole-7-carboxamide]
52.3 nM | CN(C)C(=O)c1cccc2c(-c3cnc4c(c3Cl)C3(CC3)CN4)c[nH]c12 [Compound 298, 3-(4′-Chloro-1′,2′-dihydrospiro[cyclopropane-1,3′-pyrrolo[2,3-b]pyridin]-5′-yl)-N,N-dimethyl-1H-indole-7-carboxamide]
